Laboratory results published in patent publication US12660819B2, “Herbicidal derivatives” (SYNGENTA CROP PROTECTION AG, priority 2020, dated 2026).

Columns and labels:
Assay type in all cases: in vivo
[1] = tested on: Abutilon theophrasti (ABUTH); experiment: Post-emergence Test (glasshouse, percentage damage to the plant); details: post-emergence spray, 1000 g/ha unless otherwise stated, evaluated after 13 days
Summary of the method: (§1)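 Seeds are sown in standard soil under controlled glasshouse conditions. The pots are then sprayed at 1000 g/ha, unless otherwise stated, with compound in acetone/water (50:50) containing 0.5% Tween 20. After 13 days further growth, percentage plant damage is scored from 1 (0-20%) to 5 (81-100%).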

[2] = tested on: Amaranthus retoflexus (AMARE); experiment: as above; details: post-emergence spray, 1000 g/ha unless otherwise stated, evaluated after 13 days
Summary of the method: as §1

[3] = tested on: Echinochloa crus-galli (ECHCG); experiment: as above; details: post-emergence spray, 1000 g/ha unless otherwise stated, evaluated after 13 days
Summary of the method: as §1

[4] = tested on: Ipomoea hederacea (IPOHE); experiment: as above; details: post-emergence spray, 1000 g/ha unless otherwise stated, evaluated after 13 days
Summary of the method: (§2)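 Spray treatment of sown glasshouse pots at 1000 g/ha (default rate), vehicle acetone/water 50:50 plus 0.5% Tween 20. Read-out: percentage damage after 13 days, converted to a score where 5 denotes 81-100% and 1 denotes 0-20%.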

Setaria faberi (SETFA) [5] = experiment: as above; details: post-emergence spray, 1000 g/ha unless otherwise stated, evaluated after 13 days
Summary of the method: as §2

Zea mays (ZEAMX) [6] = experiment: as above; details: post-emergence spray, 1000 g/ha unless otherwise stated, evaluated after 13 days
Summary of the method: as §2

[7] = tested on: Amaranthus retoflexus (AMARE); experiment: Pre-emergence Test (glasshouse, percentage damage to the plant); details: 1000 g/ha unless otherwise stated, five-point scale
Setaria faberi (SETFA) [8] = experiment: as above; details: 1000 g/ha unless otherwise stated, five-point scale
[9] = tested on: Echinochloa crus-galli (ECHCG); experiment: as above; details: 1000 g/ha unless otherwise stated, five-point scale
[10] = tested on: Ipomoea hederacea (IPOHE); experiment: as above; details: 1000 g/ha unless otherwise stated, five-point scale
[11] = tested on: Abutilon theophrasti (ABUTH); experiment: as above; details: 1000 g/ha unless otherwise stated, five-point scale
Zea mays (ZEAMX) [12] = experiment: as above; details: 1000 g/ha unless otherwise stated, five-point scale

## CCOc1cc(C)cc(-c2c(C)n(CC)c(-c3ccc(Cl)c(Cl)c3)c(C(=O)O)c2=O)c1 [Compound 103, 2-(3,4-dichlorophenyl)-5-(3-ethoxy-5-methyl-phenyl)-1-ethyl-6-methyl-4-oxo-pyridine-3-carboxylic acid]
[1]
  Post-emergence Test ABUTH, percentage damage to the plant (five-point scale): 2 (2=21-40%)
[2]
  Post-emergence Test AMARE, percentage damage to the plant (five-point scale): 1 (1=0-20%)
[3]
  Post-emergence Test ECHCG, percentage damage to the plant (five-point scale): 1 (1=0-20%)
[4]
  Post-emergence Test IPOHE, percentage damage to the plant (five-point scale): 1 (1=0-20%)
Setaria faberi (SETFA) [5]
  Post-emergence Test SETFA, percentage damage to the plant (five-point scale): 1 (1=0-20%)
Zea mays (ZEAMX) [6]
  Post-emergence Test ZEAMX, percentage damage to the plant (five-point scale): 1 (1=0-20%)
[7]
  percentage damage to the plant, AMARE: 1 (1=0-20%)
Setaria faberi (SETFA) [8]
  percentage damage to the plant, SETFA: 2 (2=21-40%)
[9]
  percentage damage to the plant, ECHCG: 1 (1=0-20%)
[10]
  percentage damage to the plant, IPOHE: 1 (1=0-20%)
[11]
  percentage damage to the plant, ABUTH: 1 (1=0-20%)
Zea mays (ZEAMX) [12]
  percentage damage to the plant, ZEAMX: 1 (1=0-20%)

## CCn1c(C)c(-c2cc(C)cc(C#N)c2)c(=O)c(C(=O)O)c1-c1ccc(Cl)c(Cl)c1 [Compound 80, 5-(3-cyano-5-methyl-phenyl)-2-(3,4-dichlorophenyl)-1-ethyl-6-methyl-4-oxo-pyridine-3-carboxylic acid]
[1]
  Post-emergence Test ABUTH, percentage damage to the plant (five-point scale): 3 (3=41-60%)
[2]
  Post-emergence Test AMARE, percentage damage to the plant (five-point scale): 3 (3=41-60%)
[3]
  Post-emergence Test ECHCG, percentage damage to the plant (five-point scale): 1 (1=0-20%)
[4]
  Post-emergence Test IPOHE, percentage damage to the plant (five-point scale): 1 (1=0-20%)
Setaria faberi (SETFA) [5]
  Post-emergence Test SETFA, percentage damage to the plant (five-point scale): 3 (3=41-60%)
Zea mays (ZEAMX) [6]
  Post-emergence Test ZEAMX, percentage damage to the plant (five-point scale): 1 (1=0-20%)
[7]
  percentage damage to the plant, AMARE: 1 (1=0-20%)
Setaria faberi (SETFA) [8]
  percentage damage to the plant, SETFA: 4 (4=61-80%)
[9]
  percentage damage to the plant, ECHCG: 1 (1=0-20%)
[10]
  percentage damage to the plant, IPOHE: 1 (1=0-20%)
[11]
  percentage damage to the plant, ABUTH: 1 (1=0-20%)
Zea mays (ZEAMX) [12]
  percentage damage to the plant, ZEAMX: 1 (1=0-20%)

## CCn1c(-c2ccc(Cl)c(Cl)c2)c(C(=O)O)c(=O)c(-c2ccc(Cl)cc2)c1C(F)(F)F [Compound 132, 5-(4-chlorophenyl)-2-(3,4-dichlorophenyl)-1-ethyl-4-oxo-6-(trifluoromethyl) pyridine-3-carboxylic acid]
[1]
  Post-emergence Test ABUTH, percentage damage to the plant (five-point scale): 3 (3=41-60%)
[2]
  Post-emergence Test AMARE, percentage damage to the plant (five-point scale): 5 (5=81-100%)
[3]
  Post-emergence Test ECHCG, percentage damage to the plant (five-point scale): 0
[4]
  Post-emergence Test IPOHE, percentage damage to the plant (five-point scale): 4 (4=61-80%)
Setaria faberi (SETFA) [5]
  Post-emergence Test SETFA, percentage damage to the plant (five-point scale): 0
Zea mays (ZEAMX) [6]
  Post-emergence Test ZEAMX, percentage damage to the plant (five-point scale): 1 (1=0-20%)
[7]
  percentage damage to the plant, AMARE: 5 (5=81-100%)
Setaria faberi (SETFA) [8]
  percentage damage to the plant, SETFA: 0
[9]
  percentage damage to the plant, ECHCG: 0
[10]
  percentage damage to the plant, IPOHE: 2 (2=21-40%)
[11]
  percentage damage to the plant, ABUTH: 4 (4=61-80%)
Zea mays (ZEAMX) [12]
  percentage damage to the plant, ZEAMX: 0

## CCn1c(C)c(-c2ccc(Cl)cc2)c(=O)c(C(=O)O)c1-c1ccc(Br)c(F)c1 [Compound 129, 2-(4-bromo-3-fluoro-phenyl)-5-(4-chlorophenyl)-1-ethyl-6-methyl-4-oxo-pyridine-3-carboxylic acid]
[1]
  Post-emergence Test ABUTH, percentage damage to the plant (five-point scale): 3 (3=41-60%)
[2]
  Post-emergence Test AMARE, percentage damage to the plant (five-point scale): 3 (3=41-60%)
[3]
  Post-emergence Test ECHCG, percentage damage to the plant (five-point scale): 2 (2=21-40%)
[4]
  Post-emergence Test IPOHE, percentage damage to the plant (five-point scale): 3 (3=41-60%)
Setaria faberi (SETFA) [5]
  Post-emergence Test SETFA, percentage damage to the plant (five-point scale): 3 (3=41-60%)
Zea mays (ZEAMX) [6]
  Post-emergence Test ZEAMX, percentage damage to the plant (five-point scale): 2 (2=21-40%)
[7]
  percentage damage to the plant, AMARE: 5 (5=81-100%)
Setaria faberi (SETFA) [8]
  percentage damage to the plant, SETFA: 5 (5=81-100%)
[9]
  percentage damage to the plant, ECHCG: 2 (2=21-40%)
[10]
  percentage damage to the plant, IPOHE: 2 (2=21-40%)
[11]
  percentage damage to the plant, ABUTH: 2 (2=21-40%)
Zea mays (ZEAMX) [12]
  percentage damage to the plant, ZEAMX: 1 (1=0-20%)

## CCn1c(C)c(-c2ccc(F)c(OCC(F)(F)F)c2)c(=O)c(C(=O)O)c1-c1ccc(Cl)c(Cl)c1 [Compound 105, 2-(3,4-dichlorophenyl)-1-ethyl-5-[4-fluoro-3-(2,2,2-trifluoroethoxy)phenyl]-6-methyl-4-oxo-pyridine-3-carboxylic acid]
[1]
  Post-emergence Test ABUTH, percentage damage to the plant (five-point scale): 2 (2=21-40%)
[2]
  Post-emergence Test AMARE, percentage damage to the plant (five-point scale): 2 (2=21-40%)
[3]
  Post-emergence Test ECHCG, percentage damage to the plant (five-point scale): 3 (3=41-60%)
[4]
  Post-emergence Test IPOHE, percentage damage to the plant (five-point scale): 1 (1=0-20%)
Setaria faberi (SETFA) [5]
  Post-emergence Test SETFA, percentage damage to the plant (five-point scale): 4 (4=61-80%)
Zea mays (ZEAMX) [6]
  Post-emergence Test ZEAMX, percentage damage to the plant (five-point scale): 2 (2=21-40%)
[7]
  percentage damage to the plant, AMARE: 3 (3=41-60%)
Setaria faberi (SETFA) [8]
  percentage damage to the plant, SETFA: 4 (4=61-80%)
[9]
  percentage damage to the plant, ECHCG: 2 (2=21-40%)
[10]
  percentage damage to the plant, IPOHE: 1 (1=0-20%)
[11]
  percentage damage to the plant, ABUTH: 1 (1=0-20%)
Zea mays (ZEAMX) [12]
  percentage damage to the plant, ZEAMX: 1 (1=0-20%)

## CCn1c(C)c(-c2ccc(OC)c(OC)c2)c(=O)c(C(=O)O)c1-c1ccc(Cl)c(Cl)c1 [Compound 99, 2-(3,4-dichlorophenyl)-5-(3,4-dimethoxyphenyl)-1-ethyl-6-methyl-4-oxo-pyridine-3-carboxylic acid]
[1]
  Post-emergence Test ABUTH, percentage damage to the plant (five-point scale): 3 (3=41-60%)
[2]
  Post-emergence Test AMARE, percentage damage to the plant (five-point scale): 3 (3=41-60%)
[3]
  Post-emergence Test ECHCG, percentage damage to the plant (five-point scale): 4 (4=61-80%)
[4]
  Post-emergence Test IPOHE, percentage damage to the plant (five-point scale): 2 (2=21-40%)
Setaria faberi (SETFA) [5]
  Post-emergence Test SETFA, percentage damage to the plant (five-point scale): 4 (4=61-80%)
Zea mays (ZEAMX) [6]
  Post-emergence Test ZEAMX, percentage damage to the plant (five-point scale): 2 (2=21-40%)
[7]
  percentage damage to the plant, AMARE: 2 (2=21-40%)
Setaria faberi (SETFA) [8]
  percentage damage to the plant, SETFA: 4 (4=61-80%)
[9]
  percentage damage to the plant, ECHCG: 3 (3=41-60%)
[10]
  percentage damage to the plant, IPOHE: 1 (1=0-20%)
[11]
  percentage damage to the plant, ABUTH: 2 (2=21-40%)
Zea mays (ZEAMX) [12]
  percentage damage to the plant, ZEAMX: 2 (2=21-40%)

## CCc1ccc(-c2c(C)n(CC)c(-c3ccc(Cl)c(Cl)c3)c(C(=O)O)c2=O)cc1 [Compound 89, 2-(3,4-dichlorophenyl)-1-ethyl-5-(4-ethylphenyl)-6-methyl-4-oxo-pyridine-3-carboxylic acid]
[1]
  Post-emergence Test ABUTH, percentage damage to the plant (five-point scale): 3 (3=41-60%)
[2]
  Post-emergence Test AMARE, percentage damage to the plant (five-point scale): 1 (1=0-20%)
[3]
  Post-emergence Test ECHCG, percentage damage to the plant (five-point scale): 1 (1=0-20%)
[4]
  Post-emergence Test IPOHE, percentage damage to the plant (five-point scale): 3 (3=41-60%)
Setaria faberi (SETFA) [5]
  Post-emergence Test SETFA, percentage damage to the plant (five-point scale): 1 (1=0-20%)
Zea mays (ZEAMX) [6]
  Post-emergence Test ZEAMX, percentage damage to the plant (five-point scale): 1 (1=0-20%)
[7]
  percentage damage to the plant, AMARE: 1 (1=0-20%)
Setaria faberi (SETFA) [8]
  percentage damage to the plant, SETFA: 4 (4=61-80%)
[9]
  percentage damage to the plant, ECHCG: 1 (1=0-20%)
[10]
  percentage damage to the plant, IPOHE: 1 (1=0-20%)
[11]
  percentage damage to the plant, ABUTH: 1 (1=0-20%)
Zea mays (ZEAMX) [12]
  percentage damage to the plant, ZEAMX: 1 (1=0-20%)

## CCn1c(C)c(-c2cnccn2)c(=O)c(C(=O)O)c1-c1ccc(Cl)cn1 [Compound 168, 2-(5-chloro-2-pyridyl)-1-ethyl-6-methyl-4-oxo-5-pyrazin-2-yl-pyridine-3-carboxylic acid]
[1]
  Post-emergence Test ABUTH, percentage damage to the plant (five-point scale): 0
[2]
  Post-emergence Test AMARE, percentage damage to the plant (five-point scale): 0
[3]
  Post-emergence Test ECHCG, percentage damage to the plant (five-point scale): 0
[4]
  Post-emergence Test IPOHE, percentage damage to the plant (five-point scale): 0
Setaria faberi (SETFA) [5]
  Post-emergence Test SETFA, percentage damage to the plant (five-point scale): 0
Zea mays (ZEAMX) [6]
  Post-emergence Test ZEAMX, percentage damage to the plant (five-point scale): 0
[7]
  percentage damage to the plant, AMARE: 0
Setaria faberi (SETFA) [8]
  percentage damage to the plant, SETFA: 0
[9]
  percentage damage to the plant, ECHCG: 0
[10]
  percentage damage to the plant, IPOHE: 0
[11]
  percentage damage to the plant, ABUTH: 0
Zea mays (ZEAMX) [12]
  percentage damage to the plant, ZEAMX: 0
